Test results: patent US10350210B2, “EGFR and ALK dual inhibitor” (PRECEDO PHARMACEUTICALS CO., LTD, priority 2015, dated 2019)

Tests used:
BaF3-TEL-EGFR-L858R = experiment: Cell growth (Cell Titer-Glo viability), BaF3-TEL-EGFR-L858R; type: cell-based; settings: Mus musculus; BaF3-TEL-EGFR-L858R (EGFR L858R mutant kinase), 72 hrs
Experimental: By testing the effect of the novel kinase inhibitors on the proliferation of cancer cells, the selectivity of the compounds of the present disclosure in inhibiting the proliferation of cancer cells was further assessed. […]
The number of viable cells was determined quantitatively by a microplate reader using Cell Titer-Glo® (Promega, US) chemiluminescence cell viability assay kit.

BaF3-FL-EGFR-Del19 = experiment: Cell growth (Cell Titer-Glo viability), BaF3-FL-EGFR-Del19; type: cell-based; settings: Mus musculus; BaF3-FL-EGFR-Del19 (EGFR delE746_A750 mutant kinase), 72 hrs
Method in brief: (§1)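 Antiproliferative assay in engineered BaF3 lines made IL-3-independent by retroviral TEL-fused kinase constructs, and in cancer cell lines HCC827 (EGFR del19) and NCI-H3255 (EGFR L858R). Viable cells quantified by Cell Titer-Glo luminescence.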

[1] = system: non-small cell lung cancer cell H1975 subcutaneous tumors; experiment: Mouse tumor model of non-small cell lung cancer cell H1975; type: in vivo; settings: for tumor inhibition rate: Bal b/c mice
Experimental: Similarly, 27 Bal b/c female mice, 4-6 weeks old, were purchased from Shanghai SLAC Laboratory Animal Co., Ltd., and maintained in an SPF laboratory. Drinking water and bedding were both sterilized by autoclaving. All operations involving the mice were performed under aseptic conditions. At day 0, 5×10^6 non-small cell lung cancer cells H1975 (purchased from ATCC) were injected subcutaneously into the left flank of all mice. At day 15, all mice were divided into three groups (9 mice per group), and the first group of mice were orally administered with methyl cellulose (HKI) solvent, the second group of mice were orally administered with Compound 1 at a dose of 25 mg/kg mouse weight, and the third group of mice were orally administered with Compound 1 at a dose of 50 mg/kg mouse weight daily. Starting from the administration, the length/width of the subcutaneous tumor was measured daily with a vernier caliper, and the weight of the mice was recorded daily to observe the effect of Compound 1 on the body weight of the mice. The mice were sacrificed at day 36 and the subcutaneous tumors were collected. The tumors were weighed, and then the tumor tissues were used to prepare protein lysates for use. The growth trend of the subcutaneous tumor within 16-36 days was plotted, wherein the tumor volume was calculated as length×width×width/2 mm^3.

BaF3-ALK-F1174L = experiment: Cell growth (Cell Titer-Glo viability), BaF3-ALK-F1174L; type: cell-based; settings: Mus musculus; BaF3-ALK-F1174L (mutant ALK F1174L kinase), 72 hrs
Method in brief: as §1

NCI-H2228 = experiment: Growth of cancer cells (Cell Titer-Glo viability), NCI-H2228; type: cell-based; settings: Homo sapiens; NCI-H2228 (wild-type ALK), 72 hrs

Row | GI50 (BaF3-TEL-EGFR-L858R) [nM] | GI50 (BaF3-FL-EGFR-Del19) [nM] | GI50 (BaF3-ALK-F1174L) [nM] | GI50 (NCI-H2228) [nM] | SMILES | tumor inhibition rate ([1]; oral daily 25 mg/kg, on the second day of administration) [%] | tumor inhibition rate ([1]; oral daily 50 mg/kg, after 8 days of administration) [%] | body weight of the mice ([1]; oral daily 25 mg/kg) | body weight of the mice ([1]; oral daily 50 mg/kg)
1 | < 3 | < 0.3 |  |  | C=CC(=O)Nc1cc(Nc2ncc(Cl)c(Nc3ccccc3S(=O)(=O)C(C)C)n2)c(OC)cc1N1CCN(CC)CC1 [Compound 1, N-(5-(5-chloro-4-(2-(isopropylsulfonyl)phenylamino)pyrimidin-2-ylamino)-2-(4-ethylpiperazin-1-yl)-4-methoxyphenyl)acrylamide] | 70 | 81.7 | did not decrease | did not decrease
2 |  |  | 1500 | < 3 | C=CC(=O)Nc1cc(Nc2ncc(Cl)c(Nc3ccccc3S(=O)(=O)C(C)C)n2)c(OC)cc1N1CCCN(C)CC1 [Compound 10, N-(5-(5-chloro-4-(2-(isopropylsulfonyl)phenylamino)pyrimidin-2-ylamino)-4-methoxy-2-(4-methyl-1,4-homopiperazin-1-yl)phenyl)acrylamide] |  |  |  | 
